Consider 4 molecules from patent US20120070417A1, “ANTI-INFLUENZA FORMULATIONS AND METHODS” (priority 2009, published 2012).

Each structure is given as a SMILES string. Read-outs that look alike come from different tables or passages of the source.

The assay relates to Influenza A/WSN/33/1. Type of assay: cell-based.

For the molecule `NC(=O)c1ncn([C@@H]2O[C@H](CO)[C@@H](O)[C@H]2O)n1` [ribavirin], the “reduced influenza titers compared to untreated (air) control” value (shortened to “reduced influenza titers”) (10 nM ribavirin in basolateral media, p>0.05) was 6.3 fold.
Consider `CCOC(=O)C1=C[C@@H](OC(CC)CC)[C@H](NC(C)=O)[C@@H](N)C1` [oseltamivir, (3R,4R,5S)-4-acetylamino-5-amino-3(1-ethylpropoxy)-1-cyclohexene-1-carboxylic acid ethyl ester], for which the “reduced influenza titers” value (1 nM oseltamivir in basolateral media) worked out at 5 fold.
Consider `CC(N)C12CC3CC(CC(C3)C1)C2` (stereo not drawn) [rimantadine], for which the “reduced influenza titers” value (1 nM rimantadine in basolateral media, p>0.05) came out at 9.6 fold. Where the note is “10 nM rimantadine in basolateral media, p<0.001”, the “reduced viral titers compared to the untreated control” value stood at 185 fold.
For the molecule `CC(=O)NC1[C@@H](NC(=N)N)C=C(C(=O)O)O[C@H]1[C@H](O)[C@H](O)CO` (stereo partly drawn) [zanamivir, 5-(acetylamino)-4-[(aminoiminomethyl)-amino]-2,6-anhydro-3,4,5-trideoxy-D-glycero-D-galacto-non-2-enoic acid], the “reduced viral titers compared to the untreated control” value (0.1 nM zanamivir alone) is reported as 40 fold. Further, the “viral infection, dose response” value ([…], p<0.01 vs untreated (Air) control) was “reduced viral infection in a dose responsive manner”.
